Results reported in paper PMC9095466 (Nature, 2022).
Several values for one entry are separate records, joined by “and”; a condition that tells them apart may be missing. Equal values may be shown once.

Tests used:
[1] = tested on: SARS-CoV-2 (USA-WA1/2020, lineage A); experiment: K18-hACE2 mouse model of SARS-CoV-2, IHC of nucleocapsid with digital image analysis; type: in vivo, K18-hACE2 mice; conditions: for Num Positive per mm^2 (IHC) / Positive % (IHC): Lung, Figure 5 Panel G, individual animals
Description: To detect viral antigen, sections were labelled with anti-SARS-CoV-2 nucleocapsid protein rabbit IgG monoclonal antibody (GeneTex; GTX635679) at a 1:5,000 dilution and processed using a Leica Bond Max automated IHC stainer. Leica Bond Polymer Refine Detection (Leica; DS9800) with DAB was used as the chromogen. Image acquisition was performed using a Roche Ventana DP200 slide scanner. Digital image analysis was performed using QuPath software[65],[66] v.0.2.3. Tissues were annotated to include all available lung tissue or all brain tissue excluding cerebellum, as cerebellar tissue was not available for all mice. Following annotation, automated detection was performed using automated SLIC superpixel segmentation with a DAB mean detection threshold of 0.18892.

[2] = tested on: SARS-CoV-2 B.1.617.2 (Delta); experiment: K18-hACE2 mice infected with Delta VOC, lung pathology scores on IHC sections; conditions: individual mice, single dose 12 hpi, 3 DPI
Description: For histological examination, mouse lungs and brains were collected directly after euthanasia and placed in 10% formalin for more than 72 h, after which tissues were embedded in paraffin. Tissue sections (4 μm) were analysed after staining with H&E and scored blinded by an anatomic pathologist. For lung, scores were applied based on the percentage of each tissue type (alveolus, vessels and so on) affected using the following criteria: (0) normal; (1) less than 10% affected; (2) 10–25% affected; (3) 26–50% affected; and (4) more than 50% affected[64]. Assessment of lung pathology in K18-hACE2 mice infected with the SARS-CoV-2 B.1.617.2 (Delta) VOC after single-dose treatment was performed on IHC sections counterstained with haematoxylin. For brains, histological scoring was assessed for perivascular inflammation using the most severely affected vessel and the following criteria: (0) no perivascular inflammation; (1) incomplete cuff one cell layer thick; (2) complete cuff one cell layer thick; (3) complete cuff two to three cells thick; and (4) complete cuff four or more cells thick. Necrotic cells in the neuroparenchyma were assessed per 0.237 mm^2 field using the most severely affected area and the following criteria: (0) no necrotic cells; (1) rare individual necrotic cells; (2) fewer than 10 necrotic cells; (3) 11 to 25 necrotic cells; (4) 26 to 50 necrotic cells; and (5) greater than 50 cells.

[3] = individual mice, 8-day regimen, tissue at death or end-point

## CS(=O)(=O)NC(CCC(N)=O)C(=O)NC(Cc1ccccc1)C(=O)NC(CCCNC(=N)N)C(=O)c1nc2ccccc2s1 (stereo not shown) [Compound N-0385, Ms-QFR-kbt]
[1]; Females
  Num Positive per mm^2 (IHC): 5.547 per mm^2 and 9.942 per mm^2 and 13.6 per mm^2 and 13.27 per mm^2 and 7.069 per mm^2
  Positive % (IHC): 0.0549% and 0.0981% and 0.1335% and 0.1309% and 0.07%
[1]; Males
  Num Positive per mm^2 (IHC): 19.22 per mm^2 and 9.103 per mm^2 and 13.04 per mm^2 and 20.75 per mm^2 and 10.41 per mm^2
  Positive % (IHC): 0.1899% and 0.0899% and 0.1288% and 0.204% and 0.1028%
[1]; [3]
  Brain No. Positive (IHC detections): 113 and 131 and 205 and 255 and 133 and 201 and 429346 and 137295 and 271623 and 125
  Brain No. Positive per mm^2: 2.79 per mm^2 and 3.006 per mm^2 and 3.517 per mm^2 and 4.198 per mm^2 and 3.156 per mm^2 and 4.077 per mm^2 and 7967.3 per mm^2 and 2771 per mm^2 and 5985.4 per mm^2 and 3.495 per mm^2
  Brain Positive %: 0.0277% and 0.0298% and 0.035% and 0.0417% and 0.0314% and 0.0404% and 79.52% and 27.59% and 59.16% and 0.0347%
  Lung No. Positive (IHC detections): 192 and 131 and 152 and 95 and 269 and 3067 and 1648 and 28511 and 272
  Lung No. Positive per mm^2: 6.545 per mm^2 and 5.06 per mm^2 and 8.682 per mm^2 and 7.096 per mm^2 and 3.624 per mm^2 and 7.345 per mm^2 and 133.68 per mm^2 and 86.7 per mm^2 and 861.5 per mm^2 and 8.911 per mm^2
  Lung Positive %: 0.065% and 0.0502% and 0.0856% and 0.0701% and 0.0366% and 0.0726% and 1.322% and 0.8535% and 8.502% and 0.088%
[1]; intranasal once daily day −1 to day 2, vs saline-treated mice
  reduction of IHC staining (nucleocapsid) in lung at 3 dpi: 98%
[2]; IHC sections
  Alveolar cells score: 0 and 1 ((1) <10% affected)
  Interstitial infiltrates in lung score: 1 ((1) <10% affected) and 2 ((2) 10–25% affected)
  Perivascular infiltrate in lung score: 1 ((1) <10% affected) and 2 ((2) 10–25% affected) and 0 and 3 ((3) 26–50% affected)
  Type II pneumocyte hyperplasia score: 0 and 2 ((2) 10–25% affected) and 1 ((1) <10% affected)
[2]; sum of scores
  Total Score (lung pathology): 2 and 6 and 3 and 1 and 7
